Laboratory results reported in BindingDB's records for doi:10.1080/14756360802187612 (Ben-Gurion University of The Negev, 2009).
Where a name gives a salt, the structure may show the parent alone.

Biological target: Tryptophanase (Escherichia coli (strain K12), UniProt P0A853)
Test: Enzyme Inhibition Assay
Conditions: pH 7.8; 25 °C
Excerpt: Enzyme inhibition assay using tryptophanase.

Chain of Tryptophanase (P0A853 whole entry): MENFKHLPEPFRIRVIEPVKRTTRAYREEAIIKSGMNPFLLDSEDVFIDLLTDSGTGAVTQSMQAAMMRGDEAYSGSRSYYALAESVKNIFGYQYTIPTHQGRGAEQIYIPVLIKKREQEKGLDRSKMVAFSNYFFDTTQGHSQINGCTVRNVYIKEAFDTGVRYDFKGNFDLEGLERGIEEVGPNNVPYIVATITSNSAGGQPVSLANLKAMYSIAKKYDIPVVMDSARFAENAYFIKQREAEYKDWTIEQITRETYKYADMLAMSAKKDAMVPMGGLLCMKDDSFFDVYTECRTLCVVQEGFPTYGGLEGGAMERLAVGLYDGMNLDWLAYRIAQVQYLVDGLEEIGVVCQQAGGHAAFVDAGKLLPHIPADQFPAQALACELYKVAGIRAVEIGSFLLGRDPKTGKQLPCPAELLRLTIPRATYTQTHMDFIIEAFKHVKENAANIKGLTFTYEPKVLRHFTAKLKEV

Ki [µM]	SMILES
52	CCOC(=O)C(N)Cc1c[nH]c2ccccc12 [L-tryptophan-ethylester (p-toluene sulfuric acid salt)]
48	CC(=O)NC(Cc1c[nH]c2ccccc12)C(=O)O (configuration not stated) [N-acetyl tryptophan]
